Series [1] deals with Fluc/GFP-Rb-1 cells. The series can be described thus: In vivo safety evaluation in orthotopic tumor-bearing mouse model.
Protocol: Before the experiments, the healthy male Balb/c-nude mice (4 weeks old) were subjected to ophthalmic examination to ensure the normal eyes. Amobarbital sodium (40 mg/kg) was injected intraperitoneally to the mice for general anesthesia, the commercially available 0.4% oxybuprocaine hydrochloride eye drops were administrated to the surface of the eyes for local anesthesia of the eye surface, and the commercially available 0.5% tropicamide eye drops were administrated for pupil dilation. The Fluc/GFP-Rb-1 cells (resuspended in 10 mM PBS at a density of 1×10^4 cells/μL) were injected into the vitreous body of the mice via a micro-syringe (33 G, Hamilton), 2 μL cell suspension for each eye.
For the tumor-bearing mice, administration was performed by ocular surface dropping.
Detection scheme: At the end of 1 month administration, the mice were euthanized by an overdose of anesthesia (anaobarbital sodium, 150 mg/kg). The cardiac perfusion was performed sequentially with normal saline and 4% paraformaldehyde. The eyeballs, hearts, liver, spleen, lung, kidney, brain and other organs were harvested and dehydrated overnight in 15% and 30% sucrose solutions gradient. The HE stained sections and immunohistochemical sections were made and observed.
Series [2] in a line: Hematology safety evaluation (complete blood cell count). The series is classed as in vivo, ICR mice. The settings on record: eye dropping 2 times a day for 2 weeks. The protocol:
Safety evaluation of 89WP-Mel eye drops: it is likely that the eye drops may be absorbed systemically, while the chemotherapeutic drug melphalan may cause systemic toxicity. The representative side effects include bone marrow suppression, etc. Thus, hematology evaluation was performed in the administration groups to determine the safety of the eye drops. Healthy male ICR mice (18-20 g) were subjected to the administration according to the regimen of pharmacodynamic evaluation experiment, wherein the frequency of eye dropping the normal saline, melphalan solution, and 89WP-Mel solution was changed to 2 times a day for 2 weeks, and the melphalan intravitreal injection was performed once a week. At the end of administration, 200 μL of whole blood was taken, anticoagulated with EDTA, and subjected to a complete blood cell count.

Series [3] is described as follows: Solubility assay in normal saline (HPLC). In kind it is physicochemical. The conditions noted are these: 37° C. The protocol: Liquid chromatography detection conditions for melphalan: column: YMC-Pack ODS-A column (150×4.6 mm, 5 μm); mobile phase: 40% acetonitrile solution; flow rate: 0.7 mL/min; column temperature: 25° C.; detection wavelength: 260 nm; injection volume: 10 μL.
Solubility assay: melphalan 0.1 mg was accurately weighted and dispersed in 1 mL normal saline, ultrasonicated for 5 min, incubated at 37° C. for 24 hrs, and filtered through 0.22 μm filter membrane. The peak area of the sample was obtained by liquid chromatography. The concentration of the sample was calculated by substituting the peak area in the standard curve equation.
Liquid chromatography detection conditions for 89WP-Mel and 289WP-Mel: column: YMC-Pack ODS-A column (150×4.6 mm, 5 μm); mobile phase: 5-65% acetonitrile (with 0.1% TFA), 30 min; flow rate: 0.7 mL/min; column temperature: 25° C.; detection wavelength: 214 nm; injection volume: 10 μL.
Solubility assay: The excess amount of 89WP-Mel or 289WP-Mel was dispersed in 60 μL normal saline, ultrasonicated for 5 min, incubated at 37° C. for 24 hrs, filtered through 0.22 μm filter membrane, and then diluted 10 times and 20 times respectively. The peak area of the samples was obtained by liquid chromatography. The concentration of the samples was calculated by substituting the peak area in the standard curve equation.
The samples were incubated in normal saline at 37° C. and 160 rpm for 24 h to obtain the saturated solutions. The solubility of the conjugates is converted to the solubility of melphalan moiety.

Another series concerns WERI-Rb-1 cells. The series is classed as cell-based. The settings on record: WERI-Rb-1, 4 hrs co-incubation, CCK-8. As to the method:
(§1) The ARPE-19 and WERI-Rb-1 cells with good growth status in the logarithmic phase were placed on 96 well plates at a density of 2000 cells/well. After incubation for 24 hrs, the drug solutions at different concentrations were added. The ARPE-19 cells were incubated at 37° C. for 4 hrs. Then, the drug solutions were discarded. The plates were washed with PBS thrice. The fresh medium was then added and incubated for 24 h. Then, 0.5 mg/mL MTT was added and incubated at 37° C. for 4 hrs. The culture solution was discarded. To each well DMSO (150 μl) was added, and the plates were shaken on a shaker for 20 min. Then, the OD490nm value was measured. For the WERI-Rb-1 cells, they were incubated with drug solutions for 4 hrs, and CCK-8 reagent (10 μL) was added to each well. The plates were incubated at 37° C. for 2 hrs. The OD490nm value was measured directly. In addition, zero_adjustment wells and negative control wells (cell survival rate 100%) were set.

Series [4] has as its system ARPE-19 cells. The series is classed as cell-based. The settings on record: ARPE-19, 4 hrs co-incubation then 24 h fresh medium, MTT. The protocol:
as §1

The test system of series [5] is HCEC cells. The series can be described thus: cells. The conditions noted are these: 4 hrs co-incubation then 24 h fresh medium, MTT. The series is classed as cell-based. As to the method: The survivals of the HCEC, ARPE-19 and WERI-Rb-1 cells after co-incubation with polypeptides or conjugates were investigated by the MTT or CCK-8 methods (n=4). The HCEC or ARPE-19 cells were co-incubated with polypeptides or conjugates for 4 hrs, followed by incubation in fresh medium for 24 h before addition of MTT for detection. The WERI-Rb-1 cells were co-incubated with the polypeptides or conjugates for 4 hrs, and then CCK-8 was added directly for detection. The cells under normal culture conditions were used as negative control (100% survival).
as §1

The subject of series [6] is retinoblastoma (Fluc/GFP-Rb-1) cells. The series is described as follows: Eye drops for treatment of intraocular retinoblastoma, mouse model. In kind it is in vivo, Balb/c nude mice. The settings on record: for mice with obvious tumor areas in the brain sections: 8 mice per group.
Protocol: Construction of retinoblastoma mouse model: the male Balb/c nude mice (18-20 g) were subjected to general anesthesia by intraperitoneal injection of amobarbital sodium (30 mg/kg). The 0.4% oxybuprocaine hydrochloride was administrated for local anesthesia of the eye surface. After the anesthesia, the 0.5% tropicamide was administrated for pupil dilation. The retinoblastoma (Fluc/GFP-Rb-1) cells (resuspended in 2 μL 10 mM PBS, 2×10^4 cells for each mouse) were slowly injected into the vitreous body near retina via a micro-syringe (33 G, Hamilton). After the injection, 0.25% chloramphenicol was dropped to the ocular surface to prevent ocular inflammation. Then, it is determined whether the model was successfully established according to the bioluminescent signal intensity in the eyes of the mice. The successfully established model mice were randomly divided into 4 groups, with 8 mice in each group.
During the 60-day pharmacodynamic evaluation experiment, the dosage regimens for the different mice groups are as follows: Group 1: eye dropping with normal saline once a day, 10 μL for each dropping; Group 2: eye dropping with 3.0 mg/mL melphalan solution once a day, 10 μL for each dropping; Group 3: eye dropping with 89WP-Mel solution (containing 3.0 mg/mL melphalan) once a day, 10 μL for each dropping; Group 4: intravitreal injection with 0.5 mg/mL melphalan solution once every two weeks, 2 μL for each injection.
The method of efficacy evaluation is as follows: on Day 0, 2, 4, 6, 9, 12, 15, 17, 20, 25 and 30 after the administration, the mice in each group were injected intraperitoneally with 150 mg/kg D-Luciferin, followed by anesthesia with isoflurane for 15 min. The bioluminescent signal intensity in the eyes of the mice was detected by IVIS Spectrum system (PerkinElmer, USA).
Series [7] has as its system Fluc/GFP-Rb-1 cells. The series can be described thus: Intraocular pharmacodynamic evaluation in tumor-bearing mice. In kind it is in vivo. The protocol: Specifically, D-luciferin (150 mg/kg) was injected intraperitoneally into each mouse, followed by general anesthesia with isoflurane. Twenty minutes after anesthesia, ocular bioluminescence signals were collected, with 30 seconds exposure time. On the day of administration (D0) and at the corresponding time points after administration, the bioluminescence signals of the mice eyeballs in each group were collected. […] The whole brain tissue was harvested. The immunohistochemical sections were made and observed.

The subject of a further series is red blood cells. The series is described as follows: Ability to lyse red blood cells at different pH. The series is classed as cell-based. The protocol: The red blood cells were resuspended at a density of 7×10^7 cells/mL in incubation medium at different pHs. The cell suspension (75 μL) was mixed with 75 μL of aqueous solution of test sample. Pure water was set as a negative control, and 1 μL Triton X-100 dissolved in 74 μL pure water was set as a positive control. Incubation was performed at 37° C. for 1 h in an air shaker at 200 rpm. After incubation, the samples were centrifugated at 1000 g for 5 min. The supernatant (100 μL) was taken to measure the OD450 nm/750 nm via microplate reader.

A short description of series [8]: Ocular pharmacokinetic evaluation after eye dropping. In kind it is in vivo, mice. The protocol: The distribution and elimination behavior of the conjugates in the eye tissues was investigated by dropping the drugs into the conjunctival sac of the mice. The conjugate solution 10 μL (at a concentration of 30 μM) was dropped into the conjunctival sac of the mice. The eyelids were gently closed to make the solution distributed evenly. […] The eyeballs were taken out and fixed with FAS eyeball fixative solution for 24 hours, dehydrated with 15% and 30% sucrose solution gradients, and then embedded in OCT to prepare 8 μm thick eyeball frozen sections. The cell nuclei were stained with DAPI.

A further series relates to ARPE-19 cell monolayer. The series can be described thus: Penetration across the retinal pigment epithelial cell monolayer model. The settings on record: four hours after administration, 3 μM.
Series [9] has as its system HCEC cells. The series can be described thus: Intracellular distribution by laser confocal microscope. The series is classed as cell-based. The settings on record: 3 μM, 37° C., 4 hrs.
Protocol: (§2) The HCEC and ARPE-19 cells with good growth status in the logarithmic phase were placed in 4-chamber confocal dishes at a density of 1×10^4 cells/well and incubated for 24 hrs. The drug solutions (all comprising 3 μM fluorescein) were added and incubated at 37° C. for 3.5 hrs. LysoTracker was then added and incubated for 0.5 hrs. Then, the drug solutions were discarded. After being washed with cold 10 mM PBS (containing 0.02 mg/mL heparin sodium) thrice and fixed with 4% paraformaldehyde, the nuclei were stained with DAPI.
Series [10] has as its system ARPE-19 cells. Described as above. In kind it is cell-based. The conditions noted are these: ARPE-19, 3 μM, 37° C., 4 hrs.
Protocol: as §2
The mark [11] stands for this setting: read-out: Solubility of drug-polypeptide conjugate.
The mark [12] stands for this setting: intravitreal injection 0.5 mg/mL.
The mark [13] stands for this setting: saline or isotonic, thermodynamic from solid, read-out: Solubility of drug.
The mark [14] stands for this setting: four hours after dropping, 30 μM.

≈ marks a conversion by molar mass, not a printed value. Like-named read-outs stand apart in the source and are kept apart here. Where a SMILES comes first, the peptide text is derived from it. Where no end group is shown, it is not given here. [ ]: non-standard residue; d: D form. ξ: configuration not given here. ξPhe(4-N(CH2CH2Cl)2) = NC(Cc1ccc(N(CCCl)CCCl)cc1)C(=O)O Where only a bound is given, the exact number is not on record here.

The text below walks through data of patent publication US20250375528A1, “CONJUGATE OF CELL-PENETRATING PEPTIDE AND MELPHALAN, AND PREPARATION CONTAINING CONJUGATE” (priority 2021, published 2025).

Protocol for ARPE-19 cell monolayer: The model in FIG. 8B is obtained by seeding the WERI-Rb-1 cells in good growth state at 2×10^4 cells/well in the lower chamber 24 hours before administration.
Samples (200 μL for each sampling) were taken every 0.5 h from the lower chamber, and 200 μL fresh D-Hank's balanced salt solution was added immediately. A total of 8 samples were taken. The fluorescence signal intensity of the samples was detected with a microplate reader (Ex 490 nm/Em 520 nm).
The calculation formula of the Apparent Permeability Coefficient (Papp) is as follows:
wherein, ΔQ/Δt is the change of the molar amount of the polypeptide across the retinal pigment epithelial cell monolayer model per unit time, which can be obtained from the slope by fitting the cumulative permeability and the diffusion time; C0 is the initial concentration of the polypeptide in the donor cell, which is 3 μM; A is the area of the cornea or sclera exposed to the diffusion medium, i.e., the effective diffusion area, which is 0.825 cm^2.

What is called solubility is the concentration that dissolves in the medium under given conditions. A word on the IC50: it is the concentration that inhibits the measured activity by half. On to `CC[C@H](C)[C@H](NC(=O)[C@H](CCCCN)NC(=O)[C@@H](NC(=O)[C@H](CCC(N)=O)NC(=O)[C@@H](N)CCCNC(=N)N)[C@@H](C)CC)C(=O)N[C@@H](Cc1c[nH]c2ccccc12)C(=O)N[C@@H](Cc1ccccc1)C(=O)N[C@@H](Cc1c[nH]c2ccccc12)C(=O)N[C@@H](Cc1c[nH]c2ccccc12)C(=O)N[C@@H](CCCNC(=N)N)C(=O)N[C@@H](CCCNC(=N)N)C(=O)N[C@@H](CCSC)C(=O)N[C@@H](CCCCN)C(=O)N[C@@H](Cc1c[nH]c2ccccc12)C(=O)N[C@@H](CCCCN)C(=O)N[C@@H](CCCCN)C(=O)NC(Cc1ccc(N(CCCl)CCCl)cc1)C(=O)O` (stereo partly drawn) [89WP-Mel] (H-RQIKIWFWWRRMKWKK[ξPhe(4-N(CH2CH2Cl)2)]-OH), for which, in the series with Fluc/GFP-Rb-1 cells [1] (eye dropping, 1 month), the “safety by HE-stained sections of the various organs” value is reported as “safe”. In [2], the “platelet count versus normal saline eye dropping group” value is on record as “did not significantly decrease”, the “red blood cell count versus normal saline eye dropping group” value was “did not significantly decrease” and the “white blood cell count versus normal saline eye dropping group” value is given as “did not significantly decrease”. In addition, the solubility at 24 h in [3] (setting [11]) came out at 44.7 ± 2.62 mg/mL (≈ 16.8 mM). Also, the IC50 with WERI-Rb-1 cells came out at 0.28 µM. In addition, the IC50 in the series on ARPE-19 cells [4] (read-out: IC50) was found to be 177 µM. Also, the IC50 with HCEC cells [5] (read-out: IC50) was 147 µM.
With `CC[C@H](C)[C@H](NC(=O)[C@H](CCCCN)NC(=O)[C@@H](NC(=O)[C@H](Cc1c[nH]c2ccccc12)NC(=O)[C@@H](N)CCCNC(=N)N)[C@@H](C)CC)C(=O)N[C@@H](Cc1c[nH]c2ccccc12)C(=O)N[C@@H](Cc1ccccc1)C(=O)N[C@@H](Cc1c[nH]c2ccccc12)C(=O)N[C@@H](Cc1c[nH]c2ccccc12)C(=O)N[C@@H](CCCNC(=N)N)C(=O)N[C@@H](CCCNC(=N)N)C(=O)N[C@@H](CCSC)C(=O)N[C@@H](CCCCN)C(=O)N[C@@H](Cc1c[nH]c2ccccc12)C(=O)N[C@@H](CCCCN)C(=O)N[C@@H](CCCCN)C(=O)NC(Cc1ccc(N(CCCl)CCCl)cc1)C(=O)O` (stereo partly drawn) [289WP-Mel] (H-RWIKIWFWWRRMKWKK[ξPhe(4-N(CH2CH2Cl)2)]-OH; N-terminus assumed), the solubility at 24 h in [3] (setting [11]) was found to be 41.8 ± 1.39 mg/mL (≈ 15.4 mM).
On to `N[C@@H](Cc1ccc(N(CCCl)CCCl)cc1)C(=O)O` [melphalan], for which the “size of the vitreous seeds of intraocular tumors, order of groups” value in the series on Fluc/GFP-Rb-1 cells [1] (melphalan solution 3.0 mg/mL eye dropping) is recorded as “normal saline group≈melphalan solution eye dropping group”. Further, the “mice with obvious tumor areas in the brain sections” value in [6] (eye dropping 3.0 mg/mL) is reported as 1; in series [6] (setting [12]), 2. Further, the “anti-tumor effect in the first month of administration” value in series [6] (eye drops once a day, 3.0 mg/mL melphalan content) is “no antitumor effect”. Besides, in [3] (setting [13]), the solubility at 24 h is less than 0.001 mg/mL. The solubility thermodynamic at 24 h in series [3] (setting [13]) is less than 0.001 mg/mL. Moreover, the “mice with obvious brain tumor areas” value in the series on Fluc/GFP-Rb-1 cells [7] (eye dropping 3.0 mg/mL) was “one”; in the series with Fluc/GFP-Rb-1 cells [7] (setting [12]), “two”. In addition, the “tumor growth curve versus normal saline eye dropping group” value in the series on Fluc/GFP-Rb-1 cells [7] (eye dropping 10 μl once a day, 3.0 mg/mL melphalan content) is on record as “no significant difference”. Also, the “survival period versus normal saline group” value in the series on Fluc/GFP-Rb-1 cells [7] (intravitreal injection 0.5 mg/mL, 2 μL, once per two weeks) is given as “no significant difference”. Also, the IC50 with ARPE-19 cells [4] was 100 to 200 µM; with ARPE-19 cells [4] (listed as Mel), 200 µM; in the series on HCEC cells [5] (listed as Mel), 113 µM; in the series with HCEC cells [5] (Homo sapiens), 100 to 200 µM.
Regarding RQIKIWFWWRRMKWKK [89WP], the hemolysis ratio is recorded as 16.4% in the series with red blood cells (pH 5.5, 40 μM); 45.1% with red blood cells (pH 5.5, 640 μM); 21.7% with red blood cells (pH 6.0, 160 μM); 33.3% in the series with red blood cells (pH 6.0, 640 μM); 25.8% with red blood cells (pH 7.4, 640 μM); “around 10%” in the series with red blood cells (pH 7.4, low concentration (<320 μM)).
As for carboxyl fluorescein [FAM], in series [8] (10 μL of 30 μM dropped into conjunctival sac), the “time of peak fluorescence intensity in the retina” value was 4 h. Besides, the “retinal fluorescence intensity versus blank retina” value in series [8] (8 hours after eye dropping) was “no significant difference”. In addition, in series [8] (setting [14]), the “fluorescence signal in anterior ocular segment (cornea), whole eye sections” value is “no obvious green or red fluorescence signal” and the “fluorescence signal in posterior ocular segment (retina), whole eye sections” value is listed as “no obvious green or red fluorescence signal”. In addition, the “fluorescence signal at the donor side of the cell monolayer” value with ARPE-19 cell monolayer is on record as “no green fluorescence signal”. Further, the “fluorescence signal in the cells” value in the series with HCEC cells [9] was “no obvious green fluorescence signal”. Also, the “fluorescence signal in the cells” value with ARPE-19 cells [10] was “no obvious green fluorescence signal”.
